From patent publication US20240034743A9, “TRICYCLIC COMPOUNDS AS EGFR INHIBITORS” (QILU PHARMACEUTICAL CO., LTD., priority 2020, published 2024)
Where two headings read alike, the source gives them in different places.

Assays:
[1] = target: EGFR WT (wild type EGFR) (Homo sapiens (Human), UniProt P00533); experiment: In vitro enzymatic TR-FRET (HTRF KinEASE-TK) kinase assay, EGFR WT; assay type: biochemical; conditions: kinase activity, TR-FRET; read-out: EGFR (WT) IC50
How it was run: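 Recombinant enzyme preincubated with compound 10 min at room temperature in kinase buffer with 5 mM MgCl2, 1 mM MnCl2, 1 mM DTT. Biotinylated TK substrate plus ATP then added for 40 min. HTRF detection (Sa-XL665, Cryptate antibody) for 1 h; IC50 from 665/615 nm ratio.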

[2] = target: EGFR L858R/T790M/C797S (Homo sapiens (Human), UniProt P00533, C797S/L858R/T790M); experiment: In vitro enzymatic TR-FRET (HTRF KinEASE-TK) kinase assay, EGFR L858R/T790M/C797S; assay type: biochemical; conditions: kinase activity
Protocol: (I) In Vitro Enzymatic Experiment for EGFR WT and EGFR L858R/T790M/C797S
In the assay, the inhibition effect of the compound on the kinase activity of EGFR WT (wild type EGFR) and EGFR L858R/T790M/C797S was tested by adopting a time-resolved fluorescence resonance energy transfer (TR-FRET) method, and half maximal inhibitory concentration IC50 of the compound on the kinase activity of EGFR was obtained.
EGFR recombinase and EGFR L858R/T790M/C797S recombinase, purchased from Signalchem.
HTRF KinEASE-TK kit, purchased from Cisbio.
DTT, MnCl2, and MgCl2, purchased from Sigma.
ATP, purchased from Promega.
Brigatinib, purchased from Selleck.
1) 1× working solution was prepared: 5 mM MgCl2; 1 mM DTT; 1 mM MnCl2 and 1× kinase buffer (in kit).
2) […] of gradiently-diluted compound was transferred to a 384-well plate using Echo 550 (Labcyte).
3) 5 μL of 2× EGFR WT or EGFR L858R/T790M/C797S recombinase solution was added to the 384-well plate, and the plate was incubated at room temperature for 10 min.
4) 5 μL of 2× TK-substrate-biotin substrate solution (containing ATP) was added to the 384-well plate, and the plate was incubated at room temperature for 40 min.
5) 5 μL of assay solution containing Sa-XL 665 HTRF and 5 μL of TK-antibody-Cryptatewas were added to the plate, and the plate was incubated at room temperature for 1 h.
6) The fluorescence signal values at 615 nm and 665 nm were measured for each well using an Envision microplate reader (PerkinElmer).
7) The ratio of fluorescence signal values at 665 nm and 615 nm was calculated for each well.
8) Data analysis was performed using GraphPad Prism software to give the IC50 for compounds.

[3] = test system: Ba/F3_Del19/T790M/C797S cells; experiment: Ba/F3_Del19/T790M/C797S cell proliferation inhibition assay (CellTiter-Glo); assay type: cell-based
How it was run: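 Ba/F3 cells carrying EGFR Del19/T790M/C797S were seeded at 700 cells/well and exposed to serially diluted compound (0.1% DMSO final) for 72 h at 37° C. Viability was read by CellTiter-Glo luminescence to give IC50.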

[4] = test system: A431 cells (EGFR WT); experiment: A431 cell proliferation inhibition assay (CellTiter-Glo); assay type: cell-based
How it was run: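 Seeded cells grown 24 h, then exposed 72 h (37° C, 5% CO2) to graded compound dilutions at 0.1% DMSO final. Viability read by CellTiter-Glo luminescence after 30 min at room temperature; IC50 fitted from the dose curve.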

[5] = test system: Ba/F3_L858R/T790M/C797S cells; experiment: Ba/F3_L858R/T790M/C797S cell proliferation inhibition assay (CellTiter-Glo); assay type: cell-based
How it was run: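 Ba/F3 cells engineered to carry EGFR L858R/T790M/C797S, seeded at 700 cells/well, exposed to serially diluted compound (0.1% DMSO final) for 72 h at 37 °C, 5% CO2. Viability read by CellTiter-Glo luminescence after 30 min at room temperature; IC50 from dose-response fit.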

[6] = Mus musculus, BaF3, cell proliferation, 72 h, CellTiter-Glo, read-out: Ba/F3 (Del19/T790M/C797S) IC50
[7] = Homo sapiens, A-431, cell proliferation, 72 h, CellTiter-Glo, read-out: A431 EGFR WT IC50
[8] = Mus musculus, BaF3, cell proliferation, 72 h, CellTiter-Glo, read-out: Ba/F3 (L858R/T790M/C797S) IC50
[9] = cell proliferation, 72 h, CellTiter-Glo, read-out: Ba/F3 (Del19/T790M/C797S) IC50
[10] = cell proliferation, 72 h, CellTiter-Glo, read-out: A431 EGFR WT IC50
[11] = cell proliferation, 72 h, CellTiter-Glo, read-out: Ba/F3 (L858R/T790M/C797S) IC50

Sequence of EGFR WT (wild type EGFR) (P00533 25-1210): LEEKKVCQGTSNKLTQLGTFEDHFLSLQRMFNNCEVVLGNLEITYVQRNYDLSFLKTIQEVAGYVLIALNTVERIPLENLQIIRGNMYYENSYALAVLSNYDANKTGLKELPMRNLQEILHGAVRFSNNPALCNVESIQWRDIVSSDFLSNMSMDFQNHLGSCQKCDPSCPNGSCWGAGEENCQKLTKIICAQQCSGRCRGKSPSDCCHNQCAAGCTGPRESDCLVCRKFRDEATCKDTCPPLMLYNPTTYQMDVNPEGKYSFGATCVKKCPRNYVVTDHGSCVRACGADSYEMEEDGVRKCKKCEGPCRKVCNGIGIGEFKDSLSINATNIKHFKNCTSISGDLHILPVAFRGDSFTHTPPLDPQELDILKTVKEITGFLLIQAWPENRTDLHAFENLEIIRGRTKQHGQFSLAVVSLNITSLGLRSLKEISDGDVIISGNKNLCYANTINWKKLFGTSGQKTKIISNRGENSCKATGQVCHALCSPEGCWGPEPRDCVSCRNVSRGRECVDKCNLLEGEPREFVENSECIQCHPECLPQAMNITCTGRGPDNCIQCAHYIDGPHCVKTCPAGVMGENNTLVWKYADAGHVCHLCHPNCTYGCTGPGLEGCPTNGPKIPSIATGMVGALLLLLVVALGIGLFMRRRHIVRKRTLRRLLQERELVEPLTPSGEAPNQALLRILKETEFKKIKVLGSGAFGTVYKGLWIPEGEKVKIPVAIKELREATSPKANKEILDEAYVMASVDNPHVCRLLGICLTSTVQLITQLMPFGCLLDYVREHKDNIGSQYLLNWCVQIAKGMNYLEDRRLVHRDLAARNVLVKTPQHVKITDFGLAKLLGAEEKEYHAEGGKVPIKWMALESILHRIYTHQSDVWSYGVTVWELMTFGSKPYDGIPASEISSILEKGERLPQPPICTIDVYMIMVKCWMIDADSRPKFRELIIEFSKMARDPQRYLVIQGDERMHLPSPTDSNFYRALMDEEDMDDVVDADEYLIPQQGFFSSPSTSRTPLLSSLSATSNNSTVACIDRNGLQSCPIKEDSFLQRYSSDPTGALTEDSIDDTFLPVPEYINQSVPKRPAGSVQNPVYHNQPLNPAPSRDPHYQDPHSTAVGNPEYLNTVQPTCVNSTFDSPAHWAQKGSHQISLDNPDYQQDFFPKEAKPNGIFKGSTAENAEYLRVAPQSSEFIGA
Sequence of EGFR L858R/T790M/C797S (P00533 25-1210 T790M/C797S/L858R): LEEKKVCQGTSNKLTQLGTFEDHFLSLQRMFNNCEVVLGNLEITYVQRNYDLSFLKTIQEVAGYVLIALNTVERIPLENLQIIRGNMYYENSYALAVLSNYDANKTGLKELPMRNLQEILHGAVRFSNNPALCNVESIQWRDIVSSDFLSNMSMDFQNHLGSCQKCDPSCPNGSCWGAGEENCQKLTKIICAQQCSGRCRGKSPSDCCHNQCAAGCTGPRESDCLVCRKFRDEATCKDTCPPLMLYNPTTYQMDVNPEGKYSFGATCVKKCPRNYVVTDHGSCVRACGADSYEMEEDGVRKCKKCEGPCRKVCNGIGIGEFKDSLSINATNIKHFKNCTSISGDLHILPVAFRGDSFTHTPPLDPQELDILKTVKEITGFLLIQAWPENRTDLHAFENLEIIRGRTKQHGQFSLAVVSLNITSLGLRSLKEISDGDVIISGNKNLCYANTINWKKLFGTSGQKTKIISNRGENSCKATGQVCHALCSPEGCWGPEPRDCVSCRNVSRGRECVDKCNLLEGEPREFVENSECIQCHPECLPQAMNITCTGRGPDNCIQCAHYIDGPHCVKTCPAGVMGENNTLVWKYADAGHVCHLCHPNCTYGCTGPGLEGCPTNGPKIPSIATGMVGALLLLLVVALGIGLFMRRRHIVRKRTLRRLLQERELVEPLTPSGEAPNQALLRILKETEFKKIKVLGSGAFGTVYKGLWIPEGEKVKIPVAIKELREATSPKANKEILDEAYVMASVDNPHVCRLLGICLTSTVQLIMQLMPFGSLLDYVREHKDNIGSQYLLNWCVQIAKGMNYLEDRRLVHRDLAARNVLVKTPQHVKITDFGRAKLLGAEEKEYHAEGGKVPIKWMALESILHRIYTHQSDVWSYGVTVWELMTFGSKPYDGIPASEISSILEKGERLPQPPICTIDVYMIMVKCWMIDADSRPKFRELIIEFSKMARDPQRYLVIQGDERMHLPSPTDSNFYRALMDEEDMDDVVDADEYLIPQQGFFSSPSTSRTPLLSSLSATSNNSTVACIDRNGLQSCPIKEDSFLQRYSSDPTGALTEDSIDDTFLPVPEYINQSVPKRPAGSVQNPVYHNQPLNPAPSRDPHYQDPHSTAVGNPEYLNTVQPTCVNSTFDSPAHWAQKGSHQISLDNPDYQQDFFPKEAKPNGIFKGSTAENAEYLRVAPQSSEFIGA

SMILES	IC50 [1]	IC50 [2]	IC50 [3, 6]	IC50 [4, 7]	IC50 [5, 8]	IC50 [3, 9]	IC50 [4, 10]	IC50 [5, 11]	IC50 ([3]; Mus musculus, BaF3, 72 h, read-out: Ba/F3 (Del19/T790M/C797S) IC50(nM))	IC50 ([4]; Homo sapiens, A-431, 72 h, read-out: A431 EGFR WT IC50(nM))	IC50 ([5]; Mus musculus, BaF3, 72 h, read-out: Ba/F3 (L858R/T790M/C797S) IC50(nM))
COc1cc2c(cc1Nc1ncc(C)c(Nc3ccccc3P(C)(C)=O)n1)-c1cnn(C)c1CCN2C#N [Compound 23]	10 to 50 nM	1 to 10 nM	10 to 50 nM	100 to 1000 nM	50 to 100 nM	–	–	–	–	–	–
Cc1cnc(Nc2cc3c(cc2OC(C)C)N(C)CCc2c-3cnn2C)nc1Nc1ccccc1P(C)(C)=O [Compound 18]	50 to 100 nM	1 to 10 nM	50 to 100 nM	> 1000 nM	100 to 1000 nM	–	–	–	–	–	–
COc1cc2c(cc1Nc1ncc(Br)c(Nc3ccc4nccnc4c3NS(C)(=O)=O)n1)-c1cnn(C)c1CCN2C1CCC1 [Compound 135]	1 to 10 nM	1 to 10 nM	–	–	–	–	–	–	< 10 nM	100 to 1000 nM	< 10 nM
COc1cc2c(cc1Nc1ncc(Cl)c(Nc3ccccc3P(C)(C)=O)n1)-c1cnn(C)c1CCN2C(C)C [Compound 45]	1 to 10 nM	< 1 nM	< 10 nM	100 to 1000 nM	10 to 50 nM	–	–	–	–	–	–
COc1ccc(CN2Cc3cc(OC)c(Nc4ncc(Br)c(Nc5ccc6nccnc6c5P(C)(C)=O)n4)cc3-c3cnn(C)c3C2)c(OC)c1 [Compound 57]	50 to 100 nM	1 to 10 nM	10 to 50 nM	100 to 1000 nM	50 to 100 nM	–	–	–	–	–	–
COc1cc2c(cc1Nc1ncc(Br)c(Nc3ccccc3P(C)(C)=O)n1)-c1cnn(C)c1CCN2[C@H]1CCN(C)C[C@@H]1F (single isomer, unassigned) [Compound 66B]	1 to 10 nM	< 1 nM	–	–	–	< 10 nM	100 to 1000 nM	10 to 50 nM	–	–	–
COc1nc2c(cc1Nc1ncc(Br)c(Nc3ccc4nccnc4c3P(C)(C)=O)n1)-c1cnn(C)c1CCN2 [Compound 52]	1 to 10 nM	–	< 10 nM	100 to 1000 nM	< 10 nM	–	–	–	–	–	–
COc1cc2c(cc1Nc1ncc(Br)c(Nc3ccc4nccnc4c3P(C)(C)=O)n1)-c1cnn(C)c1CCN2C(C)=O [Compound 15]	10 to 50 nM	–	< 10 nM	100 to 1000 nM	10 to 50 nM	–	–	–	–	–	–
COc1nc2c(cc1Nc1ncc(Br)c(Nc3ccccc3P(C)(C)=O)n1)-c1cnn(C)c1CCN2 [Compound 51]	10 to 50 nM	–	< 10 nM	100 to 1000 nM	10 to 50 nM	–	–	–	–	–	–
COc1cc2c(cc1Nc1ncc(Br)c(Nc3ccccc3N(C)S(C)(=O)=O)n1)-c1cnn(C)c1CCN2C [Compound 4]	1 to 10 nM	–	< 10 nM	100 to 1000 nM	< 10 nM	–	–	–	–	–	–
COc1cc2c(cc1Nc1ncc(Br)c(Nc3ccc4nccnc4c3P(C)(C)=O)n1)-c1cnn(C)c1CCC2O (stereo not drawn) [Compound 24]	1 to 10 nM	–	< 10 nM	100 to 1000 nM	< 10 nM	–	–	–	–	–	–
COc1cc2c(cc1Nc1ncc(Br)c(Nc3ccccc3P(C)(C)=O)n1)-c1cnn(C)c1COC2 [Compound 46]	10 to 50 nM	–	10 to 50 nM	100 to 1000 nM	10 to 50 nM	–	–	–	–	–	–
COc1cc2c(cc1Nc1ncc(Br)c(Nc3ccc4nccnc4c3P(C)(C)=O)n1)-c1cnn(C)c1CC(O)C2 (stereo not drawn) [Compound 31]	1 to 10 nM	–	< 10 nM	100 to 1000 nM	10 to 50 nM	–	–	–	–	–	–
COc1cc2c(cc1Nc1nc(Nc3ccccc3P(C)(C)=O)c3sccc3n1)-c1cnn(C)c1CCN2C [Compound 58]	10 to 50 nM	–	10 to 50 nM	> 1000 nM	10 to 50 nM	–	–	–	–	–	–
COc1cc2c(cc1Nc1ncc(Br)c(Nc3cccnc3P(C)(C)=O)n1)-c1cnn(C)c1CCN2C [Compound 44]	1 to 10 nM	–	< 10 nM	100 to 1000 nM	10 to 50 nM	–	–	–	–	–	–
COc1cc2c(cc1Nc1ncc(Br)c(Nc3ccccc3P(C)(C)=O)n1)-c1ccnn1CCN2C [Compound 29]	10 to 50 nM	–	10 to 50 nM	100 to 1000 nM	10 to 50 nM	–	–	–	–	–	–

The next lines start with results.

IC50 [1]	IC50 [2]	IC50 [3, 6]	IC50 [4, 7]	IC50 [5, 8]	IC50 [3, 9]	IC50 [4, 10]	IC50 [5, 11]	SMILES	IC50 ([3]; Mus musculus, BaF3, 72 h, read-out: Ba/F3 (Del19/T790M/C797S) IC50(nM))	IC50 ([4]; Homo sapiens, A-431, 72 h, read-out: A431 EGFR WT IC50(nM))	IC50 ([5]; Mus musculus, BaF3, 72 h, read-out: Ba/F3 (L858R/T790M/C797S) IC50(nM))
50 to 100 nM	1 to 10 nM	10 to 50 nM	100 to 1000 nM	50 to 100 nM	–	–	–	COc1cc2c(cc1Nc1ncc(Br)c(Nc3ccc4nccnc4c3NS(C)(=O)=O)n1)-c1cccnc1CCN2C(C)C [Compound 116]	–	–	–
100 to 1000 nM	1 to 10 nM	–	–	–	50 to 100 nM	100 to 1000 nM	50 to 100 nM	COc1cc2c(cc1Nc1ncc(Br)c(Nc3ccccc3P(C)(C)=O)n1)-c1cn(C3COC3)nc1CCN2C(C)C [Compound 77B]	–	–	–
10 to 50 nM	< 1 nM	< 10 nM	100 to 1000 nM	10 to 50 nM	–	–	–	COc1cc2c(cc1Nc1ncc(Br)c(Nc3ccc4nccnc4c3P(C)(C)=O)n1)-c1cccnc1CCN2C [Compound 108]	–	–	–
–	1 to 10 nM	< 10 nM	> 1000 nM	10 to 50 nM	–	–	–	COc1cc2c(cc1Nc1ncc(Br)c(Nc3ccc4nccnc4c3C(N)=O)n1)-c1cnn(C)c1CCN2C(C)C [Compound 115]	–	–	–
1 to 10 nM	1 to 10 nM	< 10 nM	100 to 1000 nM	10 to 50 nM	–	–	–	COc1nc2c(cc1Nc1ncc(Br)c(Nc3ccc4nccnc4c3NS(C)(=O)=O)n1)-c1cnn(C)c1CCN2C(C)C [Compound 86]	–	–	–
10 to 50 nM	1 to 10 nM	10 to 50 nM	100 to 1000 nM	10 to 50 nM	–	–	–	COc1cc2c(cc1Nc1ncc(Br)c(Nc3ccc4nccnc4c3N3CCCS3(=O)=O)n1)-c1cnn(C)c1CCN2C(C)C [Compound 118]	–	–	–
10 to 50 nM	< 1 nM	50 to 100 nM	> 1000 nM	100 to 1000 nM	–	–	–	COc1cc2c(cc1Nc1nccc(Nc3ccccc3P(C)(C)=O)n1)-c1cnn(C)c1CCN2C(C)C [Compound 102]	–	–	–
10 to 50 nM	1 to 10 nM	10 to 50 nM	100 to 1000 nM	10 to 50 nM	–	–	–	COc1cc2c(cc1Nc1ncc(Br)c(Nc3ccc4nccnc4c3NS(C)(=O)=O)n1)-c1cnn(C)c1CCN2C(C)(C)CF [Compound 120]	–	–	–
1 to 10 nM	–	< 10 nM	100 to 1000 nM	10 to 50 nM	–	–	–	COc1cc2c(cc1Nc1ncc(Br)c(Nc3ccnc(C)c3P(C)(C)=O)n1)-c1cnn(C)c1CCN2C(C)C [Compound 111]	–	–	–
1 to 10 nM	–	< 10 nM	100 to 1000 nM	10 to 50 nM	–	–	–	COc1cc2c(cc1Nc1ncc(Br)c(Nc3ccc4nccnc4c3NC(C)=O)n1)-c1cnn(C)c1CCN2C(C)C [Compound 106]	–	–	–
1 to 10 nM	–	10 to 50 nM	100 to 1000 nM	10 to 50 nM	–	–	–	COc1cc2c(cc1Nc1ncc(Br)c(Nc3ccc4nccnc4c3CNS(C)(=O)=O)n1)-c1cnn(C)c1CCN2C(C)C [Compound 137]	–	–	–
1 to 10 nM	–	< 10 nM	100 to 1000 nM	< 10 nM	–	–	–	COc1nc2c(cc1Nc1ncc(Br)c(Nc3ccc4nccnc4c3NS(C)(=O)=O)n1)-c1cnn(C)c1CCN2 [Compound 81]	–	–	–
1 to 10 nM	–	< 10 nM	100 to 1000 nM	< 10 nM	–	–	–	COc1cc2c(cc1Nc1ncc(Br)c(Nc3ccccc3P(C)(C)=O)n1)-c1cnn(C)c1CCN2C1CCOCC1 [Compound 87]	–	–	–
